Patent publication US11717471B2, “Hydrogel microcapsules” (ISP Investments LLC, priority 2010, dated 2023)
Converted amounts (≈) assume the structure as drawn.

What was measured:
[1] = Solubility of amine monomers of Formula I in water; format: physicochemical
From the text: The insolubility point was reached when a distinct two separate layers was observed.

[2] = Material Safety Data Sheet from Arkema Inc for Norsocryl; cited from earlier work
[3] = 0.1 g amine monomer/100 g deionised water
[4] = 0.2 g amine monomer/100 g deionised water
[5] = 0.3 g amine monomer/100 g deionised water
[6] = 0.4 g amine monomer/100 g deionised water
[7] = 0.5 g amine monomer/100 g deionised water
[8] = 1.0 g amine monomer/100 g deionised water
[9] = 1.5 g amine monomer/100 g deionised water
[10] = 2.0 g amine monomer/100 g deionised water
[11] = 2.5 g amine monomer/100 g deionised water
[12] = 5.0 g amine monomer/100 g deionised water
[13] = 7.5 g amine monomer/100 g deionised water
[14] = 10.0 g amine monomer/100 g deionised water
[15] = 12.5 g amine monomer/100 g deionised water
[16] = 15.0 g amine monomer/100 g deionised water

solubility in water [1, 3] | solubility in water [1, 4] | solubility in water [1, 5] | solubility in water [1, 6] | solubility in water [1, 7] | solubility in water [1, 8] | solubility in water [1, 9] | solubility in water [1, 10] | solubility in water [1, 11] | solubility in water [1, 12] | solubility in water [1, 13] | solubility in water [1, 14] | solubility in water [1, 15] | solubility in water [1, 16] | solubility in water ([1]; quaternized monomer) | solubility in water ([1]; estimated from Table 2) | SMILES | solubility in water, published literature value [2]
soluble | insoluble | insoluble | insoluble | insoluble | insoluble | insoluble | insoluble | insoluble | insoluble | insoluble | insoluble | insoluble | insoluble |  |  | C=C(C)C(=O)OCCN(C(C)C)C(C)C [DPAEMA, Diisopropylaminoethyl methacrylate] | 
 |  |  |  |  |  |  |  |  |  |  |  |  |  | completely water soluble |  | C=C(C)C(=O)OCC[N+](C)(CC)CC.COS(=O)(=O)[O-] [DEAEMA Quat DMS, Diethylaminoethyl methacrylate dimethyl sulphate quaternary ammonium form] | 
soluble | soluble | soluble | soluble | soluble | soluble | soluble | insoluble | insoluble | insoluble | insoluble | insoluble | insoluble | insoluble |  | less than 2 g/100 g water | C=C(C)C(=O)OCCNC(C)(C)C [TBAEMA, tertiary-butylaminoethyl methacrylate] | 18 mg/mL (≈ 97.2 mM)
soluble | insoluble | insoluble | insoluble | insoluble | insoluble | insoluble | insoluble | insoluble | insoluble | insoluble | insoluble | insoluble | insoluble |  |  | C=C(C)C(=O)OCCN(CC)CC [DEAEMA, diethylaminoethyl methacrylate] | 
